Test results published in patent publication US20230027601A1, “METHOD FOR MANUFACTURING REVAUDIOSIDE-D-CONTAINING CRYSTALLIZED PRODUCT, AND REVAUDIOSIDE-D-CONTAINING CRYSTALLIZED PRODUCT” (SUNTORY HOLDINGS LIMITED, priority 2019, published 2023).

Assay: saturated solubility of RebA and RebD in ethanol solvent (excess loading, 24 h stirring, filtrate measured with LCMS)
Format: physicochemical
Conditions: for saturated solubility: 90% by mass of EtOH, 10° C., values used in calculation of the degree of supersaturation; for saturated dissolution concentration: 90% ethanol solvent at 10° C., according to FIG. 1
Description: The saturated solubility is herein measured according to the following method. That is, 100 ml of a solvent having a predetermined methanol or ethanol concentration (w/w) is placed in a container (having a volume of 100 ml or 200 ml, suitably 200 ml), the liquid temperature is set to 10° C. by a water bath in advance, and then the solvent is stirred at 200 rpm, and a target substance is loaded in an excessive amount (amount until suspension is made). After 24 hours, a filtrate is obtained by a 0.45-um membrane filter, and the amount of the target substance (RebA or RebD) included in the filtrate is measured with LCMS. LCMS here used is suitably LCMS 8050 manufactured by Shimadzu Corporation.
Specifically, 100 ml of a solvent having a predetermined ethanol concentration (w/w) was placed in a […] glass container (separable round-bottomed flask, Tokyo Rikakikai Co., Ltd.), set to a predetermined temperature by a water bath (PCC-7000, Tokyo Rikakikai Co., Ltd.) in advance, and then stirred (SPZ-100, Tokyo Rikakikai Co., Ltd.) at 200 rpm, and RebA (J-100, Morita Kagaku Kogyo Co., Ltd.) or RebD (Jining Renewal & Joint International, China) was loaded in an excessive amount (amount until suspension was achieved). After 24 hours, a filtrate was obtained by a 0.45-um membrane filter, the amount of RebA or RebD included in the filtrate was measured with LCMS (LCMS 8050 manufactured by Shimadzu Corporation), and the solubility curve was created. The results are illustrated in FIG. 1.

| saturated solubility [ppm] | saturated dissolution concentration | Structure (SMILES) |
| --- | --- | --- |
| 8270.5 | 8,250 ppm | C=C1C[C@@]23CC[C@H]4[C@@](C)(CCC[C@@]4(C)C(=O)O[C@@H]4O[C@H](CO)[C@@H](O)[C@H](O)[C@H]4O)[C@@H]2CC[C@]1(O[C@@H]1O[C@H](CO)[C@@H](O)[C@H](O[C@@H]2O[C@H](CO)[C@@H](O)[C@H](O)[C@H]2O)[C@H]1O[C@@H]1O[C@H](CO)[C@@H](O)[C@H](O)[C@H]1O)C3 [RebA, rebaudioside A] |
| 99.33 | 99.3 ppm | C=C1C[C@@]23CC[C@H]4[C@@](C)(CCC[C@@]4(C)C(=O)O[C@@H]4O[C@H](CO)[C@@H](O)[C@H](O)[C@H]4O[C@@H]4O[C@H](CO)[C@@H](O)[C@H](O)[C@H]4O)[C@@H]2CC[C@]1(O[C@@H]1O[C@H](CO)[C@@H](O)[C@H](O[C@@H]2O[C@H](CO)[C@@H](O)[C@H](O)[C@H]2O)[C@H]1O[C@@H]1O[C@H](CO)[C@@H](O)[C@H](O)[C@H]1O)C3 [RebD, rebaudioside D] |
